The values that follow are results of earlier work, collected in article PMC4891020, “Preclinical evaluation of a nanoformulated antihelminthic, niclosamide, in ovarian cancer” (Oncotarget, 2016).

In brackets after ≈: the same amount, converted by molar mass.

Details of data set [1]: method as in earlier work.

For `O=C(Nc1ccc([N+](=O)[O-])cc1Cl)c1cc(Cl)ccc1O` [Niclosamide, niclosamide], the “systemic bioavailability when administered orally” value is listed as about 10%. Further, the water solubility in data set [1] was 0.23 µg/mL (≈ 0.703 µM).
